Measurements reported in ChEMBL document CHEMBL5096225 (J Med Chem, 2022).
≈ marks a conversion by molar mass, not a printed value.

Assay: Solubility of the compound in deionized water
Type: physicochemical

Row | solubility [µg/mL] | Compound
1 | 56 (≈ 191 µM) | O=C(c1cc(O)cc(F)c1)c1cc(O)c(O)c([N+](=O)[O-])c1
2 | 45 (≈ 165 µM) | Cc1ccc(C(=O)c2cc(O)c(O)c([N+](=O)[O-])c2)cc1 [TOLCAPONE]
